# Results published in US9238802B2, “E. coli transformant, method for producing flavin-bound glucose dehydrogenase using the same, and mutant flavin-bound glucose dehydrogenases” (KIKKOMAN CORPORATION, priority 2010, dated 2016).
# Key:
# MpGDH = assay: Inhibitory effects of 1,10-phenanthroline on GDH activity; assay type: biochemical, Mucor prainii NISL0103
# Procedure: (§1) The inhibitory effects of 1,10-phenanthroline on the activities of these flavin-bound GDHs were examined by the following method. According to the enzyme activity assay of Example 1, the enzyme activities when 1,10-phenanthroline was added at final concentrations of 1, 5, 10, 25, and 50 mM were determined to calculate the inhibitory rates relative to 0% of the inhibitory rate when no 1,10-phenanthroline was added.
# [1] = system: flavin-bound GDHs of the invention; assay: Inhibitory effects of 1,10-phenanthroline, summary; assay type: biochemical, Mucor
# Procedure: as §1
# MjGDH = assay: Inhibitory effects of 1,10-phenanthroline on GDH activity; assay type: biochemical, Mucor javanicus NISL0111
# Procedure: as §1
# McGDH = assay: as above; assay type: biochemical, Mucor circinelloides f. circinelloides NISL0117
# Procedure: as §1
compound,measurement,setting,value
"c1cnc2c(c1)ccc1cccnc12 [1,10-phenanthroline]",GDH inhibition rate,"MpGDH; 1,10-phenanthroline 1 mM",3.72%
same,GDH inhibition rate,"MpGDH; 1,10-phenanthroline 5 mM",10.1%
same,GDH inhibition rate,"MpGDH; 1,10-phenanthroline 10 mM",23.9%
same,GDH inhibition rate,"MpGDH; 1,10-phenanthroline 25 mM",44.1%
same,GDH inhibition rate,"MpGDH; 1,10-phenanthroline 50 mM",68.6%
same,inhibitory effects,"[1]; 1,10-phenanthroline 1 mM",2-4%
same,inhibitory effects,"[1]; 1,10-phenanthroline 5 mM",about 10%
same,GDH inhibition rate,"MjGDH; 1,10-phenanthroline 1 mM",3.27%
same,GDH inhibition rate,"MjGDH; 1,10-phenanthroline 5 mM",13.1%
same,GDH inhibition rate,"MjGDH; 1,10-phenanthroline 10 mM",23.5%
same,GDH inhibition rate,"MjGDH; 1,10-phenanthroline 25 mM",64.7%
same,GDH inhibition rate,"MjGDH; 1,10-phenanthroline 50 mM",88.9%
same,GDH inhibition rate,"McGDH; 1,10-phenanthroline 1 mM",1.95%
same,GDH inhibition rate,"McGDH; 1,10-phenanthroline 5 mM",8.23%
same,GDH inhibition rate,"McGDH; 1,10-phenanthroline 10 mM",12.8%
same,GDH inhibition rate,"McGDH; 1,10-phenanthroline 25 mM",36.2%
same,GDH inhibition rate,"McGDH; 1,10-phenanthroline 50 mM",68.5%
